Measured values as given in the NIST ThermoML archive (doi:10.1021/acs.jced.6b00128).

Conditions: Liquid, Falling or rolling sphere viscometry

CCCCC(CC)COC(=O)c1ccc(C(=O)OCC(CC)CCCC)c(C(=O)OCC(CC)CCCC)c1 (stereo not drawn) [tris(2-ethylhexyl) trimellitate]
Conditions	viscosity [mPa·s]
315.1 K, 8710 kPa	92.64
315.1 K, 23090 kPa	125
315.1 K, 36550 kPa	163.5
315.1 K, 69620 kPa	301.3
315.1 K, 71420 kPa	310.8
315.1 K, 104200 kPa	540.6
315.1 K, 138800 kPa	934
347.1 K, 9180 kPa	22.72
347.1 K, 22490 kPa	28.88
347.1 K, 36420 kPa	36.54
347.1 K, 70160 kPa	62.43
347.1 K, 70370 kPa	62.32
347.1 K, 104100 kPa	101.1
347.1 K, 138500 kPa	159.1
347.1 K, 173500 kPa	244.9
347.1 K, 219900 kPa	420.8
387.5 K, 11780 kPa	7.262
387.5 K, 22080 kPa	8.542
387.5 K, 36110 kPa	10.48
387.5 K, 70650 kPa	16.6
387.5 K, 72750 kPa	17.21
387.5 K, 104700 kPa	25.32
387.5 K, 140100 kPa	37.04
387.5 K, 173400 kPa	51.68
387.5 K, 215400 kPa	77.27
428.6 K, 9400 kPa	3.143
428.6 K, 21670 kPa	3.632
428.6 K, 36940 kPa	4.46
428.6 K, 70470 kPa	6.643
428.6 K, 105400 kPa	9.7
428.6 K, 139500 kPa	13.2
428.6 K, 172300 kPa	17.63
428.6 K, 203200 kPa	22.51
428.6 K, 237600 kPa	29.74
477.8 K, 11620 kPa	1.649
477.8 K, 23680 kPa	1.916
477.8 K, 37690 kPa	2.232
477.8 K, 37760 kPa	2.235
477.8 K, 70980 kPa	3.227
477.8 K, 105500 kPa	4.336
477.8 K, 106000 kPa	4.336
477.8 K, 139300 kPa	5.743
477.8 K, 174200 kPa	7.352
477.8 K, 196800 kPa	8.536
477.8 K, 219300 kPa	10.02
477.8 K, 240800 kPa	11.62
527.4 K, 10410 kPa	1.015
527.4 K, 23110 kPa	1.161
527.4 K, 36430 kPa	1.333
527.4 K, 69910 kPa	1.79
527.4 K, 105200 kPa	2.466
527.4 K, 105700 kPa	2.469
527.4 K, 139000 kPa	3.097
527.4 K, 172900 kPa	3.835
527.4 K, 200700 kPa	4.578
527.4 K, 201600 kPa	4.601
527.4 K, 223700 kPa	5.224
527.4 K, 241600 kPa	5.761
